# Laboratory results reported in patent US8834862B2, “Methods, compositions and devices utilizing stinging cells/capsules for conditioning a tissue prior to delivery of an active agent” (NanoCyte Inc., priority 2005, dated 2014).
# System: blood glucose
# Experiment: Insulin delivery by aiptasia stinging capsule gel, blood glucose in nude mice
# Type: in vivo
# Details: topical aiptasia stinging capsule gel plus Humolin, blood glucose at 0, 30, 60 and 90 minutes after gel activation, FIG. 3
# Experimental: The potential of the stinging capsule patch to deliver an agent (insulin) into the blood stream was tested with aiptasia capsules.
# Materials—Commercial Insulin—Humolin of EliLilly was tested. Unless otherwise noted, all chemicals were purchased from Sigma (Aldrich).
# Animals—6-9 week old nude mice each weighing 20-30 gr were used.
# Insulin Delivery—Mice were topically applied with the aiptasia stinging capsule gel and Humolin. A few microlitres of blood were drawn from the tail tip prior to insulin application (time 0) and thirty minutes, sixty minutes and ninety minutes following gel activation. Blood glucose concentration was measured using a human glucometer.
# In parallel, and as a positive control, mice were subcutaneously injected with Humolin.
substance,measurement,value
insulin,insulin delivery / blood glucose regulation compared with subcutaneous injection,in a similar manner as subcutaneous injection
